Laboratory results published in patent publication US11370791B2, “Solid polymorphs of a FLNA-binding compound and its hydrochloride salts” (Pain Therapeutics, Inc., priority 2019, dated 2022).
Entries after “also recorded” stand apart in the source; their conditions may differ. Structures can show the parent of a compound that is named as a salt. Where two headings read alike, the source gives them in different places.

Assays:
[1] = 1 week stability studies (HPLC purity, XRPD, appearance); format: physicochemical; conditions: for Observations T = 0 / HPLC Purity T = 0: start of stability study
Description: Each salt formed was exposed to environments of 40° C./75% RH (open vial), elevated temperature (80° C., open vial) and ambient light (about 22° C. in a closed vial), for 1 week to assess both chemical and physical stability. Resulting solids were analyzed by X-ray powder diffraction (XRPD) to establish if any changes had occurred and by HPLC to determine purity.

[2] = dynamic vapor sorption (DVS); format: physicochemical; conditions: for hygroscopicity by DVS: 0%-90% RH; for hysteresis: at 0% RH
Description: Approximately 10 mg of sample was placed into a glass vapor sorption balance pan and loaded into a DVS-1 dynamic vapor sorption balance by Surface Measurement Systems. […] After completion of the sorption cycle, the sample was dried using the same procedure, from 90% RH down to 0% RH. The weight change during the sorption/desorption cycles were plotted, permitting the hygroscopic nature of the sample to be determined.

[3] = hydration studies, slurries in IPA/water mixtures; format: physicochemical; conditions: for Observations, hydration study: IPA/water
[4] = solvent solubility screen; conditions: for solubility: 40 °C
[5] = 40° C./75% RH, open vial, dihydrochloride monohydrate
[6] = 40° C./75% RH, dihydrochloride monohydrate
[7] = 80° C., open vial, dihydrochloride monohydrate
[8] = 80° C., dihydrochloride monohydrate
[9] = Ambient (light, about 22° C., closed vial)
[10] = Ambient (light, about 22° C., closed vial), dihydrochloride monohydrate
[11] = ambient, dihydrochloride monohydrate
[12] = between 70% and 0% RH, dihydrochloride monohydrate
[13] = 1,2-dichloroethene, organic solvent or mixture
[14] = 2-MeTHF, organic solvent or mixture
[15] = 2-butanol, organic solvent or mixture
[16] = 2-propanol, organic solvent or mixture
[17] = 2-propanol:water (10%), organic solvent or mixture
[18] = acetone, organic solvent or mixture
[19] = acetone:water (5%), organic solvent or mixture
[20] = acetone:water (20%), organic solvent or mixture
[21] = acetonitrile, organic solvent or mixture
[22] = cyclohexane, organic solvent or mixture
[23] = dimethylacetamide, organic solvent or mixture
[24] = dimethylsulfoxide, organic solvent or mixture
[25] = ethanol, organic solvent or mixture
[26] = ethyl acetate, organic solvent or mixture
[27] = heptane, organic solvent or mixture
[28] = isopropyl acetate, organic solvent or mixture
[29] = methanol, organic solvent or mixture
[30] = methyl acetate, organic solvent or mixture
[31] = methyl ethyl ketone, organic solvent or mixture
[32] = methyl isobutyl ketone, organic solvent or mixture
[33] = tert-butyl methyl ether, organic solvent or mixture
[34] = tetrahydrofuran, organic solvent or mixture
[35] = toluene, organic solvent or mixture

For `CN1CCC2(CC1)NCC(=O)N2Cc1ccccc1` [HCl Di-Salt Hydrate (Form 2), 1-benzyl-8-methyl-1,4,8-triazaspiro-[4.5]-decan-2-one dihydrochloride monohydrate], the “Observations T = One week” value ([1]; 40° C./75% RH, open vial) was “White solid”, the “HPLC Purity T = One week” value [1, 5] was 99.8% and the “polymorphic form by XRPD after 1 week” value [1, 6] was “increase in crystallinity”. For the same compound, the “Observations T = One week” value [1, 7] was “white to off-white/orange; also recorded: Orange solid”, the “polymorphic form by XRPD after 1 week” value [1, 8] was “did not indicate significant changes in polymorphic form” and the “Observations T = One week” value [1, 9] was “White solid”. The “HPLC Purity T = One week” value [1, 10] was 99.5%, the “polymorphic form by XRPD after 1 week” value [1, 11] was “did not indicate significant changes in polymorphic form” and the “Observations T = 0” value [1] was “White solid”. For the same compound, the “HPLC Purity T = 0” value ([1]; dihydrochloride monohydrate) was 99.4%, the “hygroscopicity by DVS” value ([2]; dihydrochloride monohydrate) was “less hygroscopic than Form 1 between 0% and 50% RH, but more hygroscopic than Form 1 by DVS analysis >50% RH; also recorded: hygroscopic above 50% RH” and the hysteresis [2] was “about 0.4%”. The “water uptake, sorption cycle” value ([2]; at 50% RH (0% to 50% RH), dihydrochloride monohydrate) was “about 0.2%”, the “water uptake, sorption cycle” value ([2]; at 80% RH, dihydrochloride monohydrate) was “about 9.9%” and the “mass decrease, desorption cycle” value [2, 12] was 6.77%. The “post-DVS XRPD analysis” value ([2]; dihydrochloride monohydrate) was “increase in crystallinity”, the “Observations, hydration study” value ([3]; 5% water, water activity approx. 0.5) was “White suspension” and the “Observations, hydration study” value ([3]; 10% water, water activity approx. 0.7) was “White suspension”. For the same compound, the “Observations, hydration study” value ([3]; 40% water, water activity approx. 0.9) was “White suspension” and the “form change by XRPD on stirring in IPA/water mixtures” value ([3]; various IPA/water mixtures, 24 hours) was “no form change occurred”.
With `CN1CCC2(CC1)NCC(=O)N2Cc1ccccc1.Cl` [HCl mono-salt, 1-benzyl-8-methyl-1,4,8-triazaspiro-[4.5]-decan-2-one monohydrochloride] the “loss in purity by HPLC during stability studies” value ([1]; 1 week, all conditions) was “No significant loss in purity”, the “polymorphic form by XRPD after 1 week” value ([1]; 40° C./75% RH) was “deliquesced” and the “HPLC Purity T = One week” value ([1]; 40° C./75% RH, open vial) was 99.4%. For the same compound, the “Observations T = One week” value ([1]; 40° C./75% RH, open vial) was “Clear liquid”, the “polymorphic form by XRPD after 1 week” value ([1]; 80° C.) was “retained its polymorphic form” and the “HPLC Purity T = One week” value ([1]; 80° C., open vial) was 99.5%. The “Observations T = One week” value ([1]; 80° C., open vial) was “Off-white”, the “HPLC Purity T = One week” value [1, 9] was 98.6% and the “Observations T = One week” value [1, 9] was “White solid”. The “polymorphic form by XRPD after 1 week” value ([1]; ambient) was “retained its polymorphic form”, the “HPLC Purity T = 0” value [1] was 98.8% and the “Observations T = 0” value [1] was “White solid”. The “post-DVS XRPD analysis” value [2] was “not consistent with any of the forms previously observed”, the “hygroscopicity by DVS” value ([2]; monohydrochloride) was “very hygroscopic above 70% RH; also recorded: deliquesced at high RH” and the hysteresis [2] was 7.3%. For the same compound, the “water uptake, sorption cycle” value ([2]; at 70% RH) was 2.55%, the “water uptake, sorption cycle” value ([2]; at 90% RH) was 68.57% and the “mass decrease, desorption cycle” value ([2]; between 10% and 0% RH) was 6.10%. For the same compound, the “mass decrease, desorption cycle” value ([2]; between 90% and 50% RH) was 54.25%, the “water uptake, sorption cycle” value ([2]; until 60% RH) was “about 0.27%” and the solubility [4, 13] was < 10000 µg/mL. For the same compound, the solubility [4, 14] was < 10000 µg/mL, the “Solubility at 40° C.” value ([4]; 2-Propanol:water (10%)) was “very high solubility” and the solubility [4, 15] was < 10000 µg/mL. The solubility [4, 16] was < 10000 µg/mL, the solubility [4, 17] was > 200000 µg/mL and the “Solubility at 40° C.” value ([4]; Acetone:Water (5%)) was “Some solubility”. For the same compound, the “Solubility at 40° C.” value ([4]; Acetone:Water (20%)) was “very high solubility”, the “Solubility at 40° C.” value ([4]; Dimethylacetamide) was “Some solubility” and the “Solubility at 40° C.” value ([4]; Dimethylsulfoxide) was “high solubility”. For the same compound, the “Solubility at 40° C.” value ([4]; Ethanol) was “Some solubility”, the “Solubility at 40° C.” value ([4]; Methanol) was “very high solubility” and the “Solubility at 40° C.” value ([4]; Water) was “very high solubility”. The solubility [4, 18] was < 10000 µg/mL, the solubility [4, 19] was ~20000 µg/mL and the solubility [4, 20] was > 200000 µg/mL. The solubility [4, 21] was < 10000 µg/mL, the solubility [4, 22] was < 10000 µg/mL and the solubility [4, 23] was ~10000 µg/mL. The solubility [4, 24] was ~105000 µg/mL, the solubility [4, 25] was ~20000 µg/mL and the solubility [4, 26] was < 10000 µg/mL. The solubility [4, 27] was < 10000 µg/mL, the solubility [4, 28] was < 10000 µg/mL and the solubility [4, 29] was > 200000 µg/mL. For the same compound, the solubility [4, 30] was < 10000 µg/mL, the solubility [4, 31] was < 10000 µg/mL and the solubility [4, 32] was < 10000 µg/mL. For the same compound, the solubility [4, 33] was < 10000 µg/mL, the solubility [4, 34] was < 10000 µg/mL and the solubility [4, 35] was < 10000 µg/mL. For the same compound, the solubility ([4]; water) was > 200000 µg/mL.
For `CN1CCC2(CC1)NCC(=O)N2Cc1ccccc1` [HCl Di-Salt Hydrate, Form 1, 1-benzyl-8-methyl-1,4,8-triazaspiro-[4.5]-decan-2-one dihydrochloride monohydrate], the “Observations T = One week” value ([1]; 40° C./75% RH, open vial) was “White solid”, the “HPLC Purity T = One week” value [1, 5] was 99.0% and the “polymorphic form by XRPD after 1 week” value [1, 6] was “No significant changes in polymorphic form”. For the same compound, the “HPLC Purity T = One week” value [1, 7] was 99.4%, the “Observations T = One week” value [1, 7] was “Off-white” and the “polymorphic form by XRPD after 1 week” value [1, 8] was “No significant changes in polymorphic form”. The “Observations T = One week” value [1, 9] was “White solid”, the “HPLC Purity T = One week” value [1, 10] was 99.4% and the “polymorphic form by XRPD after 1 week” value [1, 11] was “No significant changes in polymorphic form”. The “Observations T = 0” value [1] was “White solid”, the “HPLC Purity T = 0” value ([1]; dihydrochloride monohydrate) was 99.1% and the “hygroscopicity by DVS” value ([2]; dihydrochloride monohydrate) was “hygroscopic above 50% RH”. For the same compound, the “final dry mass higher than the initial dry mass” value ([2]; at 0% RH following sorption and de-sorption profile) was 0.13%, the “largest hysteresis, difference in water uptake between sorption and de-sorption profile” value ([2]; at 50% RH) was 0.78% and the “water uptake, sorption cycle” value ([2]; at 90% RH, dihydrochloride monohydrate) was “about 8.26%”. The “mass decrease, desorption cycle” value [2, 12] was “about 2.33%”, the “post-DVS XRPD analysis” value ([2]; dihydrochloride monohydrate) was “No significant differences in polymorphic form” and the solubility [4, 13] was < 10000 µg/mL. For the same compound, the solubility [4, 14] was < 10000 µg/mL, the “Solubility at 40° C.” value ([4]; 2-Propanol:water (10%)) was “Moderate solubility” and the solubility [4, 15] was < 10000 µg/mL. For the same compound, the solubility [4, 16] was < 10000 µg/mL, the solubility [4, 17] was ~25000 µg/mL and the “Solubility at 40° C.” value ([4]; Acetone:Water (20%)) was “High solubility”. The “Solubility at 40° C.” value ([4]; Dimethylsulfoxide) was “very high solubility”, the “Solubility at 40° C.” value ([4]; Methanol) was “Moderate solubility” and the “Solubility at 40° C.” value ([4]; Water) was “very high solubility”. The solubility [4, 18] was < 10000 µg/mL, the solubility [4, 19] was < 10000 µg/mL and the solubility [4, 20] was ~85000 µg/mL. The solubility [4, 21] was < 10000 µg/mL, the solubility [4, 22] was < 10000 µg/mL and the solubility [4, 23] was < 10000 µg/mL. For the same compound, the solubility [4, 24] was > 200000 µg/mL, the solubility [4, 25] was < 10000 µg/mL and the solubility [4, 26] was < 10000 µg/mL. The solubility [4, 27] was < 10000 µg/mL, the solubility [4, 28] was < 10000 µg/mL and the solubility [4, 29] was ~25000 µg/mL. For the same compound, the solubility [4, 30] was < 10000 µg/mL, the solubility [4, 31] was < 10000 µg/mL and the solubility [4, 32] was < 10000 µg/mL. The solubility [4, 33] was < 10000 µg/mL, the solubility [4, 34] was < 10000 µg/mL and the solubility [4, 35] was < 10000 µg/mL. The solubility ([4]; water) was > 200000 µg/mL.
